The text below walks through data of publication PMC10604990, “Characterization and Investigation of Novel Benzodioxol Derivatives as Antidiabetic Agents: An In Vitro and In Vivo Study in an Animal Model” (Biomolecules, 2023).

Each structure is given as a SMILES string. Like-named read-outs stand apart in the source and are kept apart here.

One experiment relates to Caco-2. The experiment can be described thus: MTS cytotoxicity assay, Caco-2. Type of experiment: cell-based. On the procedure:
(§1) Cultivation of the cancer cell lines MCF-7, Hep3B, HepG2, and Caco-2 HeLa was conducted in RPMI 1640 medium, whereas LX-2, B16-F1, and HEK-293T cells were grown in DMEM medium. These cells were incubated at 37 °C in a 5% CO2 atmosphere within a humid setting. In a 96-well plate, 1000 cells were seeded in each well. Following a 24 h incubation, they were exposed to various concentrations of Ia-IIe compounds (300, 100, 50, and 10 µM) for 72 h. The Cell-Tilter 96® (Promega Corporation, Madison, WI, USA) Aqueous One Solution Cell Proliferation (MTS) bioassay was utilized to determine the cell viability post-culture. For this assay, 90 µL of medium and 10 µL of MTS solution were added to every well, and the plates were then placed in a 37 °C environment for 2 to 4 h. The absorbance was subsequently assessed at a wavelength of 490 nm using a UV–Vis spectrophotometer.
Background: Tetrazolium assays rely on reduction of a dye to a coloured formazan, in cell work by metabolically active cells.

The next experiment has as its system HepG2. The experiment can be described thus: MTS cytotoxicity assay, HepG2. Format: cell-based. On the procedure:
as §1

A further experiment deals with Hep3B. Kind of experiment: MTS cytotoxicity assay, Hep3B. Type of experiment: cell-based. To be noted: 72 h. The procedure: as §1
Another experiment concerns MCF-7. The experiment can be described thus: MTS cytotoxicity assay, MCF-7. Format: cell-based. On the procedure:
as §1

For a further experiment, the system named is HeLa. The experiment can be described thus: MTS cytotoxicity assay, HeLa. Format: cell-based. As to conditions: 72 h. The procedure:
as §1

Another experiment deals with LX-2. Kind of experiment: MTS cytotoxicity assay, LX-2. Format: cell-based. On the procedure: as §1
Experiment [1] addresses T1, α-amylase (Homo sapiens, UniProt P04746).
T1 sequence (P04746 16-511): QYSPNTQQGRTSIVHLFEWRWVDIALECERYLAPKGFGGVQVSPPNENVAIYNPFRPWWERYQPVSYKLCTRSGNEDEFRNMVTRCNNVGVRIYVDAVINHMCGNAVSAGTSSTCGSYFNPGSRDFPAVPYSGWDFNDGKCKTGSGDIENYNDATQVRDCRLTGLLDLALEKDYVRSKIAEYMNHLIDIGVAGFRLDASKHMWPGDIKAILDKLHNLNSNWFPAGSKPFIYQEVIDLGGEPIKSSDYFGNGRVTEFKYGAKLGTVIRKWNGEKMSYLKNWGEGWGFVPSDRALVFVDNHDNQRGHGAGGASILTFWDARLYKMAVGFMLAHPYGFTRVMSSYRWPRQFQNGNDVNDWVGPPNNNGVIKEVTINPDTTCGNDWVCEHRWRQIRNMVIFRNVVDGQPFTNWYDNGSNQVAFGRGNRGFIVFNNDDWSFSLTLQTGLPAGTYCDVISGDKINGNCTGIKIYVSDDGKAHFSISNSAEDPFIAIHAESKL
To be noted: cited from earlier work.

The test system of the next experiment is Hek293t normal cell line. Kind of experiment: MTS cytotoxicity assay, Hek293t normal cell line. Format: cell-based. To be noted: 72 h. On the procedure: as §1
Experiment [2] has as its target T1, α-amylase. Kind of experiment: α-amylase inhibition, DNSA method. Type of experiment: biochemical.
Protocol: The experiment was conducted using the 3,5-dinitrosalicylic acid (DNSA) approach. Buffer solutions were prepared, containing 20 mm of both sodium phosphate monobasic and sodium phosphate dibasic, and were augmented with 6.7 mm sodium chloride (NaH2PO4 and Na2HPO4, each at 6.7 mm NaCl, pH 6.9). A beaker was filled partially with NaH2PO4 and NaCl solution and stirred magnetically, and the pH was meticulously calibrated using a specialized electrode. The desired pH of 6.9 was achieved by adding more NaH2PO4 and NaCl to the solution.
The stock solution consisted of synthesized molecules at a 1 mg/mL concentration, harmoniously blended with no less than 10% DMSO in a 1:100 dilution. This mixture was then united with a buffer composed of Na2HPO4/NaH2PO4 (0.02 M) and NaCl (0.006 M), maintaining a pH of 6.9. From this, working solutions were created at concentrations ranging from 0.1 to 100 µM. These comprised 0.01, 0.1, 0.5, 1, and 5 mL of the synthesized molecules diluted with the pH-adjusted buffer and brought to a total volume of 10 mL using VF (10 mL).
This transformative amalgam journeyed to attain a final volume of 100 mL, seamlessly infused with the phosphate buffer discussed earlier, harmonizing within a 100 mL volumetric flask (VF). Meanwhile, the starch solution, poised at a concentration of 1% (w/v), saw the suspension of 1000 mg of starch in 100 mL of distilled water, orchestrated with finesse within a 100 mL VF. This aqueous symphony unfolded in a temperate embrace of 37 °C within a water bath, occasionally stirring to deter any starch precipitation inklings.
The overture of this reaction was orchestrated by DNSA—a reactive virtuoso that commences its dance upon encountering reducing sugars, conjuring forth 3-amino-5-nitro salicylic acid, a spectral charmer at the wavelength of around 540 nm. The creation of DNSA itself, an artful process, saw the dissolution of 12 g of sodium potassium tartrate tetrahydrate within 8.0 mL of 2 M NaOH, further entwined with 20 mL of the enchanted 96 mm 3.5-dinitrosalicylic acid solution. Thus, the stage was set for this chemical ballet, where reactions waltzed, and absorbance painted a canvas of molecular magic. […]
The climax of this reaction narrative was unveiled as 200 μL of DNSA entered the stage, promptly followed by a vigorous boiling performance for 10 min, orchestrated at the harmonious temperature range of 85 to 90 °C. […] In a final crescendo, the resounding absorbance at 540 nm resounded as it was masterfully measured utilizing the UV-Visible spectrophotometer.
In order to produce the initial state, the blank canvas was used to substitute the synthesized chemicals, adding 200 μL of buffer. […] This captivating performance culminated with quantifying enzyme inhibitory activity expressed as a percentage of inhibition. […]
Experiment [3] deals with streptozotocin-induced diabetic mice. The experiment can be described thus: In vivo hypoglycemic effect in STZ-induced diabetic mice. To be noted: five daily i.p. doses of 10 mg/kg, fasting, 252.2 mg/dL before treatment, untreated diabetes group 274.25 mg/dL. From the text: The mice-related investigations were meticulously conducted, adhering strictly to the protocols outlined by the Association for Assessment and Accreditation of Laboratory Animal Care International. The ethical underpinning of these experiments was formally acknowledged, having secured the approval of the Institutional Review Board of the Animal House and Use Committee at An-Najah National University (approval number: Med. June. 2023/9).
The study’s protagonists consisted of 18 healthy adult mice gracing the stage with a weight symphony ranging from 17 to 27 g. These cherished participants were thoughtfully accommodated in groups of three within the hospitable confines of the animal facility. In an overture of preparation, the mice were granted 7 days to acquaint themselves with the ambiance of the animal facility, enveloped within the embrace of controlled temperature conditions, a harmonious 25 ± 2 °C.
In the experiment, the mice were subjected to diabetes induction via an intraperitoneal (i.p.) injection of streptozotocin (STZ). […] In order to ascertain the induction of diabetes, the fasting blood glucose levels of the mice were assessed on the fourth day after the injection of STZ. […]
In this research, the fasting blood glucose levels for all groups were measured on the first day before the induction of diabetes using a streptozotocin (STZ) injection. […]

The test system of the next experiment is cancer cell lines. Kind of experiment: MTS cytotoxicity assay, range over cell lines. Format: cell-based. On the procedure: as §1
For experiment [4], the target named is T1, α-amylase. As to conditions: control compound IIe; cited from earlier work.

One may read the IC50 as the concentration that gives 50% inhibition. On to `O=c1[nH]cc(F)c(=O)[nH]1` [Compound 5-FU, reference compound], for which the IC50 with Caco-2 (72 h) came to 4.75 ± 1.71 µM; with HepG2 (72 h) it was 4.07 ± 1.42 µM; in the experiment with Hep3B it was 5.11 ± 1.67 µM; in the experiment with MCF-7 (72 h), 6.51 ± 1.82 µM; with HeLa, 7.79 ± 1.6 µM; with LX-2 (72 h) it was 0.178 ± 0.11 µM.

As to `Oc1cc(O)cc(Oc2c(O)cc(Oc3c(O)cc(O)cc3O)cc2O)c1` [DDBT, 2-(4-(3,5-dihydroxyphenoxy)-3,5-dihydroxyphenoxy) benzene-1,3,5-triol], the IC50 at α-amylase [1] is 8.5 µM.

As to `COc1cccc2c1C(=O)c1c(O)c3c(c(O)c1C2=O)C[C@@](O)(C(=O)CO)C[C@@H]3O[C@H]1C[C@H](N)[C@H](O)[C@H](C)O1` [DOX, reference compound], the IC50 with Hek293t normal cell line was 0.038 ± 0.02 µM; in the experiment on Caco-2 (72 h), 0.024 ± 0.001 µM; in the experiment on HepG2 (72 h) it was below 0.01 µM; with Hep3B, 0.025 ± 0.005 µM; with MCF-7 (72 h), 0.053 ± 0.009 µM; in the experiment with HeLa, below 0.01 µM. This compound also returned an IC50 with LX-2 (72 h) of 0.21 ± 0.12 µM.

As for `O=C(Nc1ccccc1)c1ccc2c(c1)OCO2` [IIa, N-phenylbenzo[d][1,3]dioxole-5-carboxamide], the IC50 was 0.85 ± 0.18 µM on α-amylase [2]; above 300 µM in the experiment on Hek293t normal cell line; above 150 µM in the experiment with Hek293t normal cell line (Homo sapiens, HEK-293T); above 300 µM with Caco-2 (Homo sapiens, Caco-2, 72 h); above 300 µM in the experiment with HepG2 (Homo sapiens, HepG2, 72 h); above 300 µM with Hep3B (Homo sapiens, Hep3B). Moreover, the IC50 in the experiment on MCF-7 (Homo sapiens, MCF7, 72 h) was above 300 µM; with HeLa (Homo sapiens, HeLa), above 300 µM; with LX-2 (Homo sapiens, LX-2, 72 h), above 300 µM.

For the compound `COc1cc(NC(=O)c2ccc3c(c2)OCO3)cc(OC)c1OC` [IIb, N-(3,4,5-trimethoxyphenyl)benzo[d][1,3]dioxole-5-carboxamide], the IC50 is above 300 µM in the experiment on Hek293t normal cell line (Homo sapiens, HEK-293T); above 300 µM with Caco-2 (Homo sapiens, Caco-2, 72 h); above 300 µM in the experiment with HepG2 (Homo sapiens, HepG2, 72 h); above 300 µM in the experiment with Hep3B (Homo sapiens, Hep3B); above 300 µM in the experiment with MCF-7 (Homo sapiens, MCF7, 72 h); above 300 µM with HeLa (Homo sapiens, HeLa). This compound displayed an IC50 with LX-2 (Homo sapiens, LX-2, 72 h) of 96.6 ± 2.7 µM.

As for `O=C(Nc1cccc(C(F)(F)F)c1)c1ccc2c(c1)OCO2` [IIc, N-(3-(trifluoromethyl)phenyl)benzo[d][1,3]dioxole-5-carboxamide], the IC50 in the experiment on Hek293t normal cell line was 156 ± 2.98 µM; in the experiment with Hek293t normal cell line (Homo sapiens, HEK-293T) it was above 150 µM; in the experiment on Caco-2 (Homo sapiens, Caco-2, 72 h), above 300 µM; with HepG2 (Homo sapiens, HepG2, 72 h) it was above 300 µM; in the experiment on Hep3B (Homo sapiens, Hep3B), above 300 µM; in the experiment with MCF-7 (Homo sapiens, MCF7, 72 h) it was above 300 µM. In addition, the IC50 in the experiment with HeLa (Homo sapiens, HeLa) was above 300 µM; in the experiment on LX-2 (Homo sapiens, LX-2, 72 h), above 300 µM. Also, the “blood glucose level after treatment” value in [3] is reported as 173.8 mg/dL.

Take `COc1ccccc1Oc1ccc(NC(=O)c2ccc3c(c2)OCO3)cc1` [IId, N-(4-(2-methoxyphenoxy)phenyl)benzo[d][1,3]dioxole-5-carboxamide]: the IC50 was 5.76 ± 1.92 µM against α-amylase [2]; above 300 µM with Hek293t normal cell line (Homo sapiens, HEK-293T); above 300 µM in the experiment on Caco-2 (Homo sapiens, Caco-2, 72 h); 55.3 ± 2.72 µM in the experiment with HepG2 (Homo sapiens, HepG2, 72 h); 65.2 ± 2.53 µM with Hep3B (Homo sapiens, Hep3B); 55.8 ± 2.51 µM in the experiment on MCF-7 (Homo sapiens, MCF7, 72 h). The IC50 with HeLa (Homo sapiens, HeLa) is 26.6 ± 2.41 µM; with LX-2 (Homo sapiens, LX-2, 72 h), 31.4 ± 2.71 µM; with cancer cell lines (Homo sapiens, Caco-2, four cancer cell lines / all cell lines except Caco-2), 26 to 65 µM; in the experiment with cancer cell lines (four cancer cell lines / all cell lines except Caco-2), 26.6 to 65.2 µM.

For the compound `COc1cc(NC(=O)c2ccc3c(c2)OCO3)cc(OC)c1` [IIe, N-(3,5-dimethoxyphenyl)benzo[d][1,3]dioxole-5-carboxamide], the half-maximal inhibitory concentration (IC50) in the experiment on Hek293t normal cell line (Homo sapiens, HEK-293T) was above 300 µM; in the experiment on Caco-2 (Homo sapiens, Caco-2, 72 h) it was above 300 µM; with HepG2 (Homo sapiens, HepG2, 72 h) it was above 300 µM; with Hep3B (Homo sapiens, Hep3B) it was above 300 µM; in the experiment on MCF-7 (Homo sapiens, MCF7, 72 h), above 300 µM; in the experiment on HeLa (Homo sapiens, HeLa) it was above 300 µM. The IC50 in the experiment with LX-2 (Homo sapiens, LX-2, 72 h) was 183 ± 2 µM; at α-amylase [4] it was 15 ± 3.52 µM.

As to `COc1cc(NC(=O)Cc2ccc3c(c2)OCO3)c(OC)cc1Cl` [Ia, 2-(benzo[d][1,3]dioxol-5-yl)-N-(4-chloro-2,5-dimethoxyphenyl)acetamide], the IC50 is 16.8 ± 1.55 µM against α-amylase [2]; above 300 µM in the experiment with Hek293t normal cell line (Homo sapiens, HEK-293T); above 300 µM in the experiment with Caco-2 (Homo sapiens, Caco-2, 72 h); 169 ± 2.16 µM in the experiment with HepG2 (Homo sapiens, HepG2, 72 h); 197 ± 1.99 µM in the experiment on Hep3B (Homo sapiens, Hep3B); 124 ± 2.73 µM in the experiment on MCF-7 (Homo sapiens, MCF7, 72 h). Also, the IC50 with HeLa (Homo sapiens, HeLa) stood at 43.6 ± 2.97 µM; in the experiment on LX-2 (Homo sapiens, LX-2, 72 h), 70.6 ± 2.45 µM.

As for `O=C(Cc1ccc2c(c1)OCO2)Nc1ccccc1` [Ib, 2-(benzo[d][1,3]dioxol-5-yl)-N-phenylacetamide], the half-maximal inhibitory concentration (IC50) in the experiment with Hek293t normal cell line (Homo sapiens, HEK-293T) is 269.2 ± 1.73 µM; with Caco-2 (Homo sapiens, Caco-2, 72 h) it was above 300 µM; with HepG2 (Homo sapiens, HepG2, 72 h), above 300 µM; with Hep3B (Homo sapiens, Hep3B), above 300 µM; in the experiment on MCF-7 (Homo sapiens, MCF7, 72 h), above 300 µM; in the experiment on HeLa (Homo sapiens, HeLa), above 300 µM. In the experiment on LX-2 (Homo sapiens, LX-2, 72 h), this compound had an IC50 of 280.6 ± 2.33 µM.

Consider `COc1ccc(OC)c(NC(=O)Cc2ccc3c(c2)OCO3)c1` [Ic, 2-(benzo[d][1,3]dioxol-5-yl)-N-(2,5-dimethoxyphenyl)acetamide], for which the IC50 on α-amylase [2] was 16.4 ± 1.58 µM; with Hek293t normal cell line (Homo sapiens, HEK-293T) it was 207 ± 2.59 µM; with Caco-2 (Homo sapiens, Caco-2, 72 h), above 300 µM; with HepG2 (Homo sapiens, HepG2, 72 h), above 300 µM; in the experiment with Hep3B (Homo sapiens, Hep3B), above 300 µM; in the experiment on MCF-7 (Homo sapiens, MCF7, 72 h), above 300 µM. In addition, the IC50 in the experiment with HeLa (Homo sapiens, HeLa) is above 300 µM; in the experiment with LX-2 (Homo sapiens, LX-2, 72 h), 209 ± 2.2 µM.

On to `N#C/C=C1/C=C(c2ccc(Br)cc2)N=C2Sc3ccccc3N21` [St.1], for which the half-maximal inhibitory concentration (IC50) at α-amylase [1] is 15.3 µM.

Turning to `COC(=O)Cc1cc2c(cc1C(=O)c1ccccc1Br)OCO2` [St.2], the 50% inhibitory concentration (IC50) at α-amylase [1] (earlier work of the same team) was 6.81 µM.

For the compound `COc1cc(OC)cc(C(=O)c2ccc3c(c2)OCO3)c1` [St.3], on α-amylase [1] (earlier work of the same team), the IC50 is 15 µM.
